Test results from patent US11013235B2 (priority 2015, dated 2021).
Read-outs that look alike come from different tables or passages of the source.

Columns and labels:
Format in all cases: in vivo
Phytophthora parasitica = test: Control of Phytophthora parasitica disease in tobacco (Pp-Nt); conditions: 1 μM spraying every 24 hours for one week, water control 91
Botrytis cinerea [1] = test: Control of Botrytis cinerea disease in Arabidopsis (Bc-At); conditions: 1 μM spraying every 24 hours for one week, water control 8.7
In short: (§1)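 Post-inoculation foliar spray, 1 μM, q24h × 1 wk; n = 50 plants/treatment; water control. Endpoints: mortality rate (Nocardia), % symptomatic leaves (Alternaria), lesion diameter (Botrytis).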

Botrytis cinerea [2] = test: Control of Botrytis cinerea disease in tobacco (Bc-Nt); conditions: 1 μM spraying every 24 hours for one week, water control 6.7
In short: as §1

Meloidogyne incognita = test: Nematode control, nodules per plant: Meloidogyne incognita; conditions: 1 μM foliar application every 5 days, evaluation 35 days after, control 34
In short: (§2)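 Compounds in ethanol, diluted in water to 1 μM, sprayed on leaves only every 5 days. Ten plants per treatment; nodules per plant counted at 35 days.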

Alternaria solani = test: Control of Alternaria solani disease in tomato (As-SI); conditions: 1 μM spraying every 24 hours for one week, water control 68
In short: as §1

Rhizoctonia solani [3] = test: Control of Rhizoctonia solani disease in tomato (Rs-SI); conditions: 1 μM spraying every 24 hours for one week, water control 96
[4] = system: Candidatus 'Liberibacter asiaticus'; conditions: spraying every 15 days, 12 months after treatment, Citrus sinensis with HLB
Pratylenchus coffeae = test: Nematode control, nodules per plant: Pratylenchus coffeae; conditions: 1 μM foliar application every 5 days, evaluation 35 days after, control 42
In short: as §2

Radopholus similis = test: Nematode control, nodules per plant: Radopholus similis; conditions: 1 μM foliar application every 5 days, evaluation 35 days after, control 45
In short: as §2

Nocardia sp = test: Control of Nocardia sp disease in tobacco (N-Nt); conditions: 1 μM spraying every 24 hours for one week, water control 58
In short: as §1

Botrytis cinerea [5] = test: Control of Botrytis cinerea disease in tomato (Bc-SI); conditions: 1 μM spraying every 24 hours for one week, water control 7.4
In short: as §1

Rhizoctonia solani [6] = test: Control of Rhizoctonia solani disease in tobacco (Rs-Nt); conditions: 1 μM spraying every 24 hours for one week, water control 87

Row | SMILES | Pp-Nt: percentage of mortality (Phytophthora parasitica) [%] | Bc-At: mean of the diameter of the lesion (Botrytis cinerea [1]) [mm] | Bc-Nt: mean of the diameter of the lesion (Botrytis cinerea [2]) [mm] | Mi: number of nodules per plant (Meloidogyne incognita) | As-SI: percentage of leaves with the disease symptoms (Alternaria solani) [%] | Rs-SI: percentage of mortality (Rhizoctonia solani [3]) [%] | Titers of the bacterium ([4]; 0.001 μM) [copies per reaction] | Titers of the bacterium ([4]; 0.01 μM) [copies per reaction] | Titers of the bacterium ([4]; 1 μM) [copies per reaction] | Titers of the bacterium ([4]; 5 μM) [copies per reaction] | Titers of the bacterium ([4]; 10 μM) [copies per reaction] | Pc: number of nodules per plant (Pratylenchus coffeae) | Rs: number of nodules per plant (Radopholus similis) | N-Nt: percentage of mortality (Nocardia sp) [%] | Bc-SI: mean of the diameter of the lesion (Botrytis cinerea [5]) [mm] | Rs-Nt: percentage of mortality (Rhizoctonia solani [6]) [%]
1 | Cc1c(CCC(=O)NCC(O)CO)c(=O)oc2cc3occ(C4CCCC4)c3cc12 (stereo not shown) [IK, 3-{6-cyclopentyl-4-methyl-2-oxo-2H-furo[3,2-g]chromen-3-yl}-N-(2,3-dihydroxypropyl)propanamide] | 0 | 2.4 | 1.5 | 0 | 8 | 2 | 435 | 0 | 0 | 45 | 6521 | 15 | 0 | 1 | 0.8 | 0
2 | Cc1c(CCC(=O)NCC(O)CO)c(=O)oc2cc3occ(-c4ccc5ccccc5c4)c3cc12 (stereo not shown) [IL, N-(2,3-dihydroxypropyl)-3-[4-methyl-6-(naphthalen-2-yl)-2-oxo-2H-furo[3,2-g]chromen-3-yl]propanamide] | 0 | 0.7 | 0.9 | 0 | 7 | 0 | 578 | 0 | 0 | 78 | 3574 | 0 | 0 | 0 | 1.2 | 0
3 | Cc1c(CCC(=O)NCC(O)CO)c(=O)oc2cc3occc3cc12 (stereo not shown) [IM, N-(2,3-dihydroxypropyl)-3-{4-methyl-2-oxo-2H-furo[3,2-g]chromen-3-yl}propanamide] | 0 | 1.2 | 0.3 | 0 | 5 | 1 | 635 | 0 | 0 | 65 | 3541 | 0 | 0 | 0 | 0.8 | 0
4 | Cc1c(CCC(=O)NCC(O)CO)c(=O)oc2cc3occ(-n4cccc4)c3cc12 (stereo not shown) [IN, N-(2,3-dihydroxypropyl)-3-[4-methyl-2-oxo-6-(1H-pyrrol-1-yl)-2H-furo[3,2-g]chromen-3-yl]propanamide] | 3 | 1.1 | 2.0 | 0 | 7 | 1 | 524 | 0 | 0 | 54 | 2368 | 0 | 3 | 0 | 1.6 | 0
5 | CC1CCN(C(=O)c2ccc(OC3CCN(CC(O)CO)CC3)cc2)C1 (stereo not shown) [IVA, 3-(4-{4-[(3-methylpyrrolidin-1-yl)carbonyl]phenoxy}piperidin-1-yl)propane-1,2-diol] | 0 | 2.4 | 1.5 | 0 | 5 | 1 | 598 | 1 | 5 | 98 | 6521 | 0 | 0 | 0 | 0.8 | 0
6 | CC1CCN(C(=O)c2ccc(OC3CCN(CC(O)C(C)O)CC3)cc2)C1 (stereo not shown) [IVB, 1-(4-{4-[(3-methylpyrrolidin-1-yl)carbonyl]phenoxy}piperidin-1-yl)butane-2,3-diol] | 3 | 0.7 | 0.9 | 0 | 7 | 1 | 432 | 8 | 4 | 43 | 3574 | 0 | 3 | 0 | 1.2 | 0
7 | O=C(c1ccc(OC2CCN(CC(O)CO)CC2)cc1)N1CCC(c2ccccc2)C1 (stereo not shown) [IVC, 3-(4-{4-[(3-phenylpyrrolidin-1-yl)carbonyl]phenoxy}piperidin-1-yl)propane-1,2-diol] | 1 | 1.2 | 0.3 | 2 | 1 | 3 | 123 | 4 | 0 | 23 | 3541 | 13 | 14 | 1 | 0.8 | 2
